Tests used:
Neurons and Astrocytes = experiment: Cell death after H2O2 oxidative stress in vitro (MTT, LDH, GSH assays); assay type: cell-based; details: γ-glutamylcysteine 500 μM; 10 μM H2O2
Text: FIGS. 1A-F: Effects of γ-glutamylcysteine on Neurons and Astrocytes. Protection of cells as measured by MTT (3-(4,5-Dimethylthiazol-2-yl)-2,5-diphenyltetrazolium bromide) assay, GSH (glutathione) assay, and LDH (lactate dehydrogenase) assay.

neuronal cells = experiment: F2-IsoPs level (oxidative stress) in neuronal cells exposed to H2O2; assay type: cell-based; details: neuronal cells pretreated with GGC 500 μM four hours prior to exposure to H2O2
Text: To quantify the oxidative stress response, as well as modification of this response by γ-glutamylcysteine supplementation, the inventors will measure isoprostane and isofuran levels. Isoprostanes are prostaglandin like compounds that are produced without cyclooxygenase by free radical induced peroxidation of arachidonic acid. Prostaglandin F2α like compounds, termed F2-isoprostanes (F2IsoPs) have been shown both in vitro and in vivo to be an accurate measure of oxidative stress.

[1] = rat, in vivo
Experimental: (§1) FIG. 2: IV γ-glutamylcysteine Supplementation in Rats. Two rats were administered γ-glutamylcysteine intravenously. […] Plasma was collected at 0, 15, 30, 60, 90, and 120 minutes post-administration and assayed for γ-glutamylcysteine levels.
(§2) Two rats were administered γ-glutamylcysteine intravenously. […] Plasma was collected at 0, 15, 30, 60, 90, and 120 minutes post-administration and assayed for γ-glutamylcysteine levels.

[2] = Plasma γ-glutamylcysteine levels after intravenous administration in rats; assay type: in vivo
Experimental: as §1, §2

glutathione = experiment: Tissue glutathione levels after intravenous γ-glutamylcysteine supplementation in rats; assay type: in vivo; details: for Tissue Glutathione Concentration: rats 400 mg/kg IV, mean (95% CI)
Experimental: Ten rats were also administered 400 mg/kg of γ-glutamylcysteine intravenously. Major organ tissues were harvested from these rats at 0, 30, 60, 90, 120, and 240 minutes and assayed for glutathione concentration. […] [table]

With `N[C@@H](CCC(=O)N[C@@H](CS)C(=O)O)C(=O)O` [γ-glutamylcysteine] the “cell death after exposure to H2O2” value (Neurons and Astrocytes) was “significantly reduce cell death”, the “level of F2-IsoPs (oxidative stress)” value (neuronal cells) was “reduced” and the “tolerability of intravenous supplementation” value [1] was “well-tolerated”. The “clinically visible signs of toxicity” value ([1]; iv) was “no clinically visible signs of toxicity”, the “plasma γ-glutamylcysteine levels” value ([2]; rats) was “significant elevation” and the “time of peak plasma γ-glutamylcysteine concentration post-injection” value ([2]; two rats, plasma at 0-120 min) was 30 min. For the same molecule, the “Tissue Glutathione Concentration” value (glutathione; Brain, 0 min, n=5) was 57.3 (3.3-111.3) μM, the “Tissue Glutathione Concentration” value (glutathione; Brain, 60 min, n=4) was 302.3 (190.0-414.5) μM and the “Tissue Glutathione Concentration” value (glutathione; Brain, 90 min, n=2) was 146.9 (−1200.5-1494.3) μM. For the same molecule, the “Tissue Glutathione Concentration” value (glutathione; Brain, 120 min, n=2) was 170.7 (152.0-189.5) μM, the “Tissue Glutathione Concentration” value (glutathione; Brain, 240 min, n=2) was 110.7 (54.1-167.3) μM and the “Tissue Glutathione Concentration” value (glutathione; GI, 0 min, n=5) was 12.9 (7.2-18.5) μM. For the same molecule, the “Tissue Glutathione Concentration” value (glutathione; GI, 60 min, n=4) was 189.8 (−5.5-385.0) μM, the “Tissue Glutathione Concentration” value (glutathione; GI, 90 min, n=2) was 166.8 (−1699.0-2032.5) μM and the “Tissue Glutathione Concentration” value (glutathione; GI, 120 min, n=2) was 14.0 (−1.6-29.6) μM. For the same molecule, the “Tissue Glutathione Concentration” value (glutathione; GI, 240 min, n=2) was 18.5 (−100.3-137.3) μM, the “Tissue Glutathione Concentration” value (glutathione; Heart, 0 min, n=5) was 210.9 (34.4-387.4) μM and the “Tissue Glutathione Concentration” value (glutathione; Heart, 60 min, n=4) was 353.4 (220.9-486.0) μM. For the same molecule, the “Tissue Glutathione Concentration” value (glutathione; Heart, 90 min, n=2) was 658.9 (504.5-813.2) μM, the “Tissue Glutathione Concentration” value (glutathione; Heart, 120 min, n=2) was 165.9 (149.4-182.4) μM and the “Tissue Glutathione Concentration” value (glutathione; Heart, 240 min, n=2) was 278.1 (170.7-385.4) μM. For the same molecule, the “Tissue Glutathione Concentration” value (glutathione; Kidney, 0 min, n=5) was 14.9 (4.5-25.2) μM, the “Tissue Glutathione Concentration” value (glutathione; Kidney, 60 min, n=4) was 13.5 (−9.1-36.2) μM and the “Tissue Glutathione Concentration” value (glutathione; Kidney, 90 min, n=2) was 39.1 (−195.0-273.2) μM. For the same molecule, the “Tissue Glutathione Concentration” value (glutathione; Kidney, 120 min, n=2) was 13.4 (−16.9-43.6) μM, the “Tissue Glutathione Concentration” value (glutathione; Kidney, 240 min, n=2) was 10.2 (−8.9-29.3) μM and the “Tissue Glutathione Concentration” value (glutathione; Liver, 0 min, n=5) was 2162.4 (1490.3-2834.5) μM. The “Tissue Glutathione Concentration” value (glutathione; Liver, 60 min, n=4) was 5066.4 (−85.9-10218.8) μM, the “Tissue Glutathione Concentration” value (glutathione; Liver, 90 min, n=2) was 10832.6 (9616.0-12049.1) μM and the “Tissue Glutathione Concentration” value (glutathione; Liver, 120 min, n=2) was 2990.0 (2239.8-3740.1) μM. For the same molecule, the “Tissue Glutathione Concentration” value (glutathione; Liver, 240 min, n=2) was 4213.7 (−6431.5-14858.8) μM, the “Tissue Glutathione Concentration” value (glutathione; Lung, 0 min, n=5) was 142.2 (50.8-233.7) μM and the “Tissue Glutathione Concentration” value (glutathione; Lung, 60 min, n=4) was 293.5 (248.6-338.4) μM. For the same molecule, the “Tissue Glutathione Concentration” value (glutathione; Lung, 90 min, n=2) was 412.2 (−571.1-1395.4) μM, the “Tissue Glutathione Concentration” value (glutathione; Lung, 120 min, n=2) was 166.4 (−58.3-391.0) μM and the “Tissue Glutathione Concentration” value (glutathione; Lung, 240 min, n=2) was 93.2 (−261.7-448.1) μM. The “Tissue Glutathione Concentration” value (glutathione; Muscle, 0 min, n=5) was 228.5 (125-0-331.9) μM, the “Tissue Glutathione Concentration” value (glutathione; Muscle, 60 min, n=4) was 307.6 (−1.1-616.3) μM and the “Tissue Glutathione Concentration” value (glutathione; Muscle, 90 min, n=2) was 654.5 (44.8-1264.2) μM. For the same molecule, the “Tissue Glutathione Concentration” value (glutathione; Muscle, 120 min, n=2) was 170.5 (−137.5-478.6) μM, the “Tissue Glutathione Concentration” value (glutathione; Muscle, 240 min, n=2) was 21.9 (−16.3-60.1) μM and the “mean glutathione levels in brain, heart, lung, liver, kidney, gastrointestinal and muscle tissues” value (glutathione; rats, 400 mg/kg intravenous) was “increased”. The tissue glutathione levels (glutathione; rats, intravenous) was “significant elevation”.

Source: US20110086920A1, “Gamma Glutamylcysteine Treatment or Prevention of Oxidative Injury” (priority 2007, published 2011)
